Test results as given in BindingDB's records for doi:10.1124/jpet.105.097006 (Acadia Pharmaceuticals, 2006).

Key:
[1] = target: T1, 5-hydroxytryptamine receptor 2C (Homo sapiens, UniProt P28335); test: Radioligand Binding Assay; details: 4 °C
T1 sequence (P28335 whole entry): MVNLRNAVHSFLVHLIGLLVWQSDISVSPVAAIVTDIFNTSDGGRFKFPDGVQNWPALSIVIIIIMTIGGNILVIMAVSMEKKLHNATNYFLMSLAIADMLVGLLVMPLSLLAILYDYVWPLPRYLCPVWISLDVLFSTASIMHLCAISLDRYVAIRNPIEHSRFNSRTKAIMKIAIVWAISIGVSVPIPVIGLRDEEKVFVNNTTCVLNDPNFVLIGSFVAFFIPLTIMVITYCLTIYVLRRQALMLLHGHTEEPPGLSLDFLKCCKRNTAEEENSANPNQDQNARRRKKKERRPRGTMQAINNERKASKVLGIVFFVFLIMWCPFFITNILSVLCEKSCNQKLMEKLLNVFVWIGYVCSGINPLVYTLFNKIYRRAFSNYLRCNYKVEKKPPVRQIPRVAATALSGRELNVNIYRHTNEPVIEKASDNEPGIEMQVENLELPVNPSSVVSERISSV
Protocol: (§1) For the membrane binding, NIH-3T3 cells were grown to 70% confluence in 15-cm2 dishes and transfected with 10 ug of receptor plasmid DNA using Polyfect transfection reagent (QIAGEN, Valencia, CA) according to manufacturer s protocols. Two days after transfection, cells expressing the desired serotonin receptor were homogenized in 20 mM HEPES/10 mM EDTA and spun down at 11,000g at 4 C for 30 min. The supernatant was discarded, and the pellet was resuspended in 20 mM HEPES/1 mM EDTA and spun down at the same setting. The pellet was then resuspended in 20 mM HEPES/0.5 mM EDTA, and membranes were used for binding assays. Bradford analysis was used to determine total membrane protein.

[2] = target: T2, 5-hydroxytryptamine receptor 2A (Homo sapiens, UniProt P28223); test: Radioligand Binding Assay; details: 4 °C
T2 sequence (P28223 whole entry): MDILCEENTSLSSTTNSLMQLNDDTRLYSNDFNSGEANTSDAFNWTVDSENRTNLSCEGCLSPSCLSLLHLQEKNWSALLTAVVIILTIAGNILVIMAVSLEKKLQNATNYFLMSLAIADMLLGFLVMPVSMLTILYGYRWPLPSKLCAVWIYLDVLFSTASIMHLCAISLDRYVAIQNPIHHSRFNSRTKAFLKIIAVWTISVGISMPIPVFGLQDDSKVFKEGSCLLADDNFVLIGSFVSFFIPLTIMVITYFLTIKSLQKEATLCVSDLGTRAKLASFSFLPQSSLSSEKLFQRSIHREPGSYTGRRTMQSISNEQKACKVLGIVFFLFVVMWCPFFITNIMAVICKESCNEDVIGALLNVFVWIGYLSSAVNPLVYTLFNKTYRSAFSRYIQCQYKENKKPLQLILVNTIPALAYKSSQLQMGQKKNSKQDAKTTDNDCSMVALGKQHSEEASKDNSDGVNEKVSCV
Protocol: as §1

[3] = target: T2, 5-hydroxytryptamine receptor 2A; test: Receptor Selection and Amplification Technology
[4] = target: 5-hydroxytryptamine receptor 2B (Homo sapiens, UniProt P41595); test: Receptor Selection and Amplification Technology
Sequence of 5-hydroxytryptamine receptor 2B (P41595 whole entry): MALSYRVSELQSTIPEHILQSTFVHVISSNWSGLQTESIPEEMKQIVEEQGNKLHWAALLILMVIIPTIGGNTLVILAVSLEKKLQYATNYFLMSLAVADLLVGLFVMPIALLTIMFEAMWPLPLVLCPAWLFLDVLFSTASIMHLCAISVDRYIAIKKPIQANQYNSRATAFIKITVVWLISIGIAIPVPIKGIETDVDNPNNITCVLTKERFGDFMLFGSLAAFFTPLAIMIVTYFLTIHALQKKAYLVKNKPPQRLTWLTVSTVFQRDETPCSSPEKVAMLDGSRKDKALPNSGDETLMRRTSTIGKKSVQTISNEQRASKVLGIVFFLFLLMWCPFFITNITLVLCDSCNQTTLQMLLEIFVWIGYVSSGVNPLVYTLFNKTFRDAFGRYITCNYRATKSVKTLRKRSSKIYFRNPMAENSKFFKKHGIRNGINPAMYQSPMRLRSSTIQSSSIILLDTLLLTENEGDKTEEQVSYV

[5] = target: T1, 5-hydroxytryptamine receptor 2C; test: Receptor Selection and Amplification Technology

CN(C)CCON/C(=C/C=C1C=CC(=O)C=C1)c1ccccc1F [eplivanserin]
Ki [1]: 1.3 nM
Ki [2]: 0.046 nM
IC50 [3]: 1 nM

Cc1nc2sccn2c(=O)c1CCN1CCC(=C(c2ccc(F)cc2)c2ccc(F)cc2)CC1
Ki [1]: 0.44 nM
IC50 [4]: 3 nM
IC50 [5]: 4.5 nM
